Data set [1] deals with A549 non-small cell lung human tumor cell line. Kind of data set: A549 tumor xenograft in athymic mice, antitumor activity. The format is in vivo. The following applies: 41st day; for Δ MEAN TUMOR VOLUME: ± SEM. As to the method: (§1) The A549 non-small cell lung human tumor cell line is purchased from the American Type Culture Collection, Rockville, Md. The cell line is free of Mycoplasma contamination (Rapid Detection System by Gen-Probe, Inc., San Diego, Calif.) and viral contamination (MAP testing by MA BioServices, Inc., Rockville, Md.). The cell line is propagated and expanded in RPMI 1640 medium containing 10% heat-inactivated FBS (Life Technologies, Grand Island, N.Y.). Cell expansions for implantation are performed in cell factories (NUNC, purchased from Fisher Scientific, Springfield, N.J.). Cells are harvested at 50–90% confluency, washed once with HBSS containing 10% FBS, and suspended in 100% HBSS.
(§2) Outbred athymic (nu/nu) female mice (“Hsd:Athymic Nude-nu” from Harlan Sprague Dawley, Indianapolis, Ind.) are anesthetized with Metofane (Mallinckrodt Veterinary, Inc., Mundelein, Ill.), and 100 μL of the cell suspension containing 1×10^7 cells is injected subcutaneously into the right axillary (lateral) region of each animal. Tumors are allowed to grow for about 20 days until a volume of ˜100 mm^3 is achieved. At this point, mice bearing tumors with acceptable morphology and size are sorted into groups of eight for the study. The sorting process produces groups balanced with respect to mean and range of tumor size. Antitumor activity is expressed as % T/C, comparing differences in tumor volumes for treatment group (T) to vehicle control group (C).
(§3) CMD1 is administered intravenously, once daily 5×/week for three weeks, at doses of 10, 25, 50, or 100 mg/kg. The final DMSO concentration is 10%. Each test group has eight mice. Tumors are measured, and individual animal body weights recorded.
(§4) Example B3 repeated except CMD2 is used.

The subject of data set [2] is HCT116 colon tumor cell line. Nature of the data set: HCT116 tumor xenograft in athymic mice, antitumor activity. The format is in vivo. The following applies: Table B5, HCT116, 100 mg/kg i.v., 34th day. As to the method:
as §1, §2, §3
Example B3 is repeated except the HCT116 colon tumor cell line is used in place of the A549 cell line. The HCT116 cell line is also obtained from American Type Culture Collection, Rockville, Md., and the cell line is free of Mycoplasma contamination and viral contamination.
Example B4 is repeated except the HCT116 colon tumor cell line is used in place of the A549 cell line. The HCT116 is also obtained from American Type Culture Collection, Rockville, Md., and the cell line is free of Mycoplasma contamination and viral contamination.

The nature of data set [3]: Body weight change of A549 tumor-bearing athymic mice. It is filed as in vivo. The following applies: 41st day, ± SEM. As to the method: as §2, §3, §4
In data set [4] the test system is Normal Dermal Human Fibroblasts (NDHF). Nature of the data set: Annexin V / propidium iodide staining (apoptosis), fluorescence microscopy. The following applies: NDHF cells, 24 hour exposure. It is filed as cell-based. As to the method: Annexin V binding was used as a marker for the early stages of apoptosis. A549,HCT116 and Normal Dermal Human Fibroblasts (NDHF) cells are treated separately with four compounds (CMD1, CMD2, CMD3 and CMD4) for 24 or 48 hours, stained with annexin V and compared to cells treated similarly with vehicle (DMSO). Cells are examined by fluorescence microscopy. […] Viability is assessed by the counterstain, propidium iodide. Cells detected by red fluorescence are not viable.

The subject of data set [5] is HCT116 colon tumor cell line. Nature of the data set: HCT116 tumor xenograft in athymic mice, antitumor activity. It is filed as in vivo. The note with it: Table B5, HCT116, 50 mg/kg i.v., 34th day, seven mice.
Setting [6] is: A549, 10 mg/kg i.v. once daily 5×/week for three weeks.
[7] abbreviates: A549, 25 mg/kg i.v. once daily 5×/week for three weeks.
Setting [8] is: A549, 50 mg/kg i.v. once daily 5×/week for three weeks.
Where [9] appears, read: A549, 100 mg/kg i.v. once daily 5×/week for three weeks.

In the case of `O=C(/C=C/c1ccc(CNCCc2c[nH]c3ccccc23)cc1)NO` [CMD1, N-hydroxy-3-[4-[[[2-(1H-indol-3-yl)-ethyl]-amino]methyl]phenyl]-2E-2-propenamide], the “% T/C” value in data set [1] (setting [6]) is given as 32%; in data set [1] (setting [7]), 20%; in data set [1] (setting [8]), 15%; in data set [1] (setting [9]), 7%; in data set [2], 18%; in data set [5], 25%. In addition, the “Δ MEAN TUMOR VOLUME” value is 121 ± 27 mm^3 in data set [1] (setting [6]); 77 ± 32 mm^3 in data set [1] (setting [7]); 57 ± 10 mm^3 in data set [1] (setting [8]); 28 ± 25 mm^3 in data set [1] (setting [9]); 140 ± 38 mm^3 in data set [2] (± SEM); 186 ± 40 mm^3 in data set [5] (± SEM). Besides, the “Δ % BODY WEIGHT” value in data set [3] (setting [6]) is recorded as “+1.3 ± 0.3%”; in data set [3] (setting [7]), −0.9 ± 0.3%; in data set [3] (setting [8]), −0.4 ± 0.3%; in data set [3] (setting [9]), “+0.4 ± 0.3%”. In addition, the “annexin V staining” value in data set [4] is “do not show noticeable annexin V staining”.

(Values after patent US7067551B2, “Deacetylase inhibitors” (Novartis AG, priority 2000, dated 2006).)
